Measurements as given in PubChem BioAssay (NCI).
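Results reflect a 48-hour exposure of cells in 96-well plates to compound at five concentrations. At the GI50, growth is halved. The concentration for full growth arrest is given as TGI.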

Key:
Assay in all cases: inhibition of tumour cell growth, NCI panel, 48 h
OVCAR-4 ovarian = tested on: OVCAR-4 ovarian
CAKI-1 renal = tested on: CAKI-1 renal
EKVX NSCLC = tested on: EKVX NSCLC
SK-MEL-5 melanoma = tested on: SK-MEL-5 melanoma
NCI-H460 lung = tested on: NCI-H460 lung

Row | SMILES | TGI (OVCAR-4 ovarian) [µM] | TGI (CAKI-1 renal) [µM] | TGI (EKVX NSCLC) [µM] | TGI (SK-MEL-5 melanoma) [µM] | GI50 (NCI-H460 lung) [µM] | TGI (NCI-H460 lung) [µM] | GI50 (SK-MEL-5 melanoma) [µM] | GI50 (CAKI-1 renal) [µM] | GI50 (EKVX NSCLC) [µM]
1 | CC(C)(C)N(Cc1ccc2c(c1)OCO2)C(=O)/C=C\Sc1ccccc1 | > 100 | > 100 | > 100 | > 100 | – | – | – | – | –
2 | Cc1nc2ccccc2c(/C=C/c2ccc(Cl)cc2)c1C(=O)/C=C/c1ccc(Cl)cc1 | – | – | – | 3 | 1.41 | 3.15 | 1.62 | – | –
3 | Cc1ccccc1NC(=O)Cc1csc2[n+]1C(=O)/C(=C/c1ccc([N+](=O)[O-])cc1)S2 | 35.3 | 61.8 | > 100 | > 100 | – | 88 | – | – | –
4 | C/C1=C\C=C(\C(C)C)CC/C(C(=O)O)=C\CC/C(C)=C/CC1 | > 100 | 88.3 | 78.7 | 34.7 | – | 34.5 | – | – | –
5 | COc1cc2nc(-c3cccs3)[nH]c(=O)c2cc1OC | > 100 | > 100 | > 100 | > 100 | – | > 100 | – | – | –
6 | CCc1ccccc1NNc1cc(=O)[nH]c(=O)[nH]1 | 38 | 21.5 | 33.9 | 32.4 | – | 52.6 | – | – | –
7 | CCOC(=O)C1=COC(C)(CCc2ccccc2)CC1=O (stereo not drawn) | > 100 | > 100 | > 100 | > 100 | – | > 100 | – | – | –
8 | O=c1cnn(CCOCP(=O)(O)O)c(=O)[nH]1 | – | > 100 | > 100 | > 100 | – | > 100 | – | – | –
9 | COc1cc(N(Cc2ccc3oc(=O)c(-c4ccccc4)nc3c2)Cc2ccc3oc(=O)c(-c4ccccc4)nc3c2)cc(OC)c1OC | > 10 | > 10 | > 10 | > 10 | – | > 10 | – | – | –
10 | COc1ccc(C(C2=C(O)COC2=O)c2cc3c(cc2O)OCO3)cc1OC (stereo not drawn) | > 100 | > 100 | > 100 | > 100 | – | > 100 | – | – | –
11 | O=[N+]([O-])c1ccc(O)c(/C=N/NC(=S)N2CCCCC2)c1 | 50.7 | 34.4 | 15.3 | 21 | – | 38.3 | – | – | –
12 | COc1ccc(/C=C/C2=NN(c3cccc(S(=O)(=O)O)c3)C3(C2)SCC(=O)N3c2nc3ccccc3s2)cc1 (stereo not drawn) | > 100 | > 100 | > 100 | > 100 | – | > 100 | – | – | –
13 | C[C@H]1S[C@H](c2c(Cl)cccc2Cl)N2Cc3ccccc3N=C12 | > 100 | > 100 | 23.4 | 23.3 | – | 32.4 | – | – | –
14 | CC(=O)Oc1ccc(/C=C/C(=O)O[C@@H](C(=O)O)[C@@H](OC(=O)/C=C/c2ccc(OC(C)=O)c(OC(C)=O)c2)C(=O)O)cc1OC(C)=O | > 100 | > 100 | > 100 | > 100 | – | > 100 | – | – | –
15 | COc1ccc(-n2sc3ncccc3c2=O)cc1 | > 100 | – | 28.4 | 44.6 | – | > 100 | – | – | –
16 | O=C(NC(=S)NC(=O)c1cc(O)c(O)c(O)c1)c1cc(O)c(O)c(O)c1 | 46.1 | 44.3 | – | 57.7 | – | > 100 | – | – | –
17 | CN(C)c1cc[n+](-c2nc(/N=C(\[O-])C(F)(F)F)nc3c2ncn3C2CC(O)C(CO)O2)cc1 (stereo not drawn) | > 100 | – | > 100 | > 100 | – | > 100 | – | – | –
18 | C[C@H](C/C=C/C(C)(C)O)[C@H]1CC[C@@]2(C)[C@@H]3CC[C@H]4C(C)(C)[C@@H](O)CC[C@@]45C[C@@]35CC[C@]12C | 43.6 | – | 34.7 | – | – | 54.2 | – | – | –
19 | COc1ccc(C(OCC2OC(n3ccc(NC(=O)c4ccccc4)nc3=O)CC2OP2(=S)SCCS2)(c2ccccc2)c2ccc(OC)cc2)cc1 (stereo not drawn) | 68.6 | – | > 100 | 43.9 | – | > 100 | – | – | –
20 | CC(C)C1N(C)c2ccc(Cl)cc2[C@H]2c3ccccc3CCN12 (stereo partly drawn) | > 100 | – | > 100 | – | – | > 100 | – | – | –
21 | CC(=O)N(O)c1ccc(-c2nc3ccccc3s2)cc1 | > 100 | > 100 | – | > 100 | – | > 100 | – | – | –
22 | CN(C)/N=C1\CC(c2ccccc2)C(C#N)(C#N)C1(C#N)C#N (stereo not drawn) | > 100 | 21.9 | > 100 | 24.4 | – | – | – | – | –
23 | CC1C(c2ccc(Cl)cc2)c2cc3c(cc2OC1N1CCOCC1)OCO3 (stereo not drawn) | – | 71.5 | > 100 | > 100 | – | > 100 | – | – | –
24 | C=CCOCn1cc(C)c(=O)[nH]c1=O | – | > 100 | > 100 | > 100 | – | > 100 | – | – | –
25 | COc1ccc2c(OCc3nnc4ccc(-c5ccccc5)nn34)ccnc2c1 | – | > 100 | > 100 | > 100 | – | – | > 100 | > 100 | > 100
26 | CC1=NC(=Cc2ccc([N+](=O)[O-])cc2)C(=O)N1n1c(-c2ccccc2)nc2ccccc2c1=O | – | > 100 | > 100 | > 100 | – | – | – | – | –
27 | CC1CC(=O)N(N(C)C)C(C#N)(C#N)C1(C#N)C#N (stereo not drawn) | 33.4 | 5.23 | 57.5 | 47 | – | – | – | – | –
